Test results from patent US20070128217A1 (priority 2003, published 2007).

What was measured:
[1] = system: antibodies in sera from SARS patients (sera 1a, 1b, 2, 6, 37, 62, London, SARS-yellow, SARS-green); assay type: binding, human; set-up: Binding of serum 6 to linear peptides of protein X1 of SARS-CoV Urbani / Binding of serum 37 to linear peptides of protein X1 of SARS-CoV Urbani / Binding of serum 6 to looped/cyclic peptide (PEPSCAN-ELISA) / Binding of serum 37 to looped/cyclic peptide (PEPSCAN-ELISA) / Binding of serum 37 to looped/cyclic peptides of protein X1 of SARS-CoV Urbani / Binding of serum 6 to linear peptides of protein X2 / Binding of serum 37 to linear peptides of protein X2 / Binding of serum 37 to looped/cyclic peptides of protein X2 of SARS-CoV Urbani / Binding of serum 6 to linear peptides of protein M of SARS-CoV Urbani / Binding of serum 37 to linear peptides of protein M of SARS-CoV Urbani / Binding of serum 6 to looped/cyclic peptides of protein M of SARS-CoV Urbani / Binding of serum 37 to looped/cyclic peptides of protein M of SARS-CoV Urbani / Binding of serum 6 to linear peptides of protein X3 of SARS-CoV Urbani / Binding of serum 37 to linear peptides of protein X3 of SARS-CoV Urbani / Binding of serum 37 to looped/cyclic peptides of protein X3 of SARS-CoV Urbani / Binding of serum 6 to linear peptides of protein X4 of SARS-CoV Urbani / Binding of serum 37 to linear peptides of protein X4 of SARS-CoV Urbani / Binding of serum 37 to looped/cyclic peptides of protein X4 of SARS-CoV Urbani / Binding of serum 6 to linear peptides of protein X5 of SARS-CoV Urbani / Binding of serum 37 to linear peptides of protein X5 of SARS-CoV Urbani / Binding of serum 37 to looped/cyclic peptides of protein X5 of SARS-CoV Urbani / Binding of serum 6 to linear peptides of protein N of SARS-CoV Urbani / Binding of serum 37 to linear peptides of protein N of SARS-CoV Urbani / Binding of serum 6 to linear peptide (PEPSCAN-ELISA) / Binding of serum 1a to looped/cyclic peptides of protein N of SARS-CoV Urbani / Binding of serum 1b to looped/cyclic peptides of protein N of SARS-CoV Urbani / Binding of serum 2 to looped/cyclic peptides of protein N of SARS-CoV Urbani / Binding of serum 6 to looped/cyclic peptides of protein N of SARS-CoV Urbani / Binding of serum 37 to looped/cyclic peptides of protein N of SARS-CoV Urbani / Binding of serum 62 to looped/cyclic peptides of protein N of SARS-CoV Urbani / Binding of serum London to looped/cyclic peptides of protein N of SARS-CoV Urbani / Binding of serum SARS-green to looped/cyclic peptides of protein N of SARS-CoV Urbani: unit not given here
[2] = system: control sera (pooled serum of ten healthy LUMC hospital workers; commercial negative donor pooled serum from the Dutch bloodbank); assay type: binding, human
[3] = system: rabbit serum obtained by immunizing a rabbit with the SARS-CoV strain Frankfurt 1; assay type: binding; set-up: Binding of a rabbit serum to linear peptides / Binding of a rabbit serum to looped peptides / Rabbit serum linear peptides / Rabbit serum looped peptides / Binding of a rabbit serum to linear peptides of protein N of SARS-CoV Urbani (Rabbit serum linear peptides) / Binding of a rabbit serum to looped/cyclic peptides of protein N of SARS-CoV Urbani (Rabbit serum looped peptides): unit not given here
[4] = system: recombinant human anti-SARS-CoV antibody 03-018; assay type: binding; set-up: Binding of antibody 03-018 to linear peptides of the N protein of SARS-CoV Urbani / Binding of antibody 03-018 to looped/cyclic peptides of the N protein of SARS-CoV Urbani: unit not given here

Sequence	Binding of serum 1a to linear peptides of protein N of SARS-CoV Urbani [1]	Binding of serum 1a to looped/cyclic peptides of protein N of SARS-CoV Urbani [1]	Binding of serum 1b to linear peptides of protein N of SARS-CoV Urbani [1]	Binding of serum 1b to looped/cyclic peptides of protein N of SARS-CoV Urbani [1]	Binding of serum 2 to linear peptides of protein N of SARS-CoV Urbani [1]	Binding of serum 2 to looped/cyclic peptides of protein N of SARS-CoV Urbani [1]	Binding of serum 6 to linear peptides of protein N of SARS-CoV Urbani [1]	Binding of serum 6 to looped/cyclic peptides of protein N of SARS-CoV Urbani [1]	Binding of serum 37 to linear peptides of protein N of SARS-CoV Urbani [1]	Binding of serum 37 to looped/cyclic peptides of protein N of SARS-CoV Urbani [1]	Binding of serum 62 to linear peptides of protein N of SARS-CoV Urbani [1]	Binding of serum 62 to looped/cyclic peptides of protein N of SARS-CoV Urbani [1]	Binding of serum London to linear peptides of protein N of SARS-CoV Urbani [1]	Binding of serum London to looped/cyclic peptides of protein N of SARS-CoV Urbani [1]	Binding of serum SARS-green to linear peptides of protein N of SARS-CoV Urbani [1]	Binding of serum SARS-green to looped/cyclic peptides of protein N of SARS-CoV Urbani [1]	Binding of serum SARS-yellow to linear peptides of protein N of SARS-CoV Urbani [1]	Binding of serum SARS-yellow to looped/cyclic peptides of protein N of SARS-CoV Urbani [1]	Control Serum Blood-Bank Looped peptides [2]	Control serum Blood-bank linear peptides [2]	also measured
FFGMSRIGMEVTPSG	0.3	0.3	0.1	0.2	0.2	0.4	0.2	0.1	0.7	0.5	0.7	0.4	0.6	0.3	0.3	0.1	0.8	0.4	0.5	0.8	Control serum LUMC linear peptides [2]: 0.7; Control serum LUMC looped peptides [2]: 0.5; Binding of a rabbit serum to linear peptides of protein N of SARS-CoV Urbani (Rabbit serum linear peptides) [3]: 0.2; Binding of a rabbit serum to looped/cyclic peptides of protein N of SARS-CoV Urbani (Rabbit serum looped peptides) [3]: 0.4; Binding of antibody 03-018 to linear peptides of the N protein of SARS-CoV Urbani [4]: 0.1; Binding of antibody 03-018 to looped/cyclic peptides of the N protein of SARS-CoV Urbani [4]: 0.2
MEVTPSGTWLTYHGA	0.3	0.4	0.1	0.3	0.1	0.5	0.2	0.3	0.6	0.7	0.5	0.8	0.5	0.5	0.2	0.5	0.7	0.4	0.7	0.8	Control serum LUMC linear peptides [2]: 0.6; Control serum LUMC looped peptides [2]: 0.8; Binding of a rabbit serum to linear peptides of protein N of SARS-CoV Urbani (Rabbit serum linear peptides) [3]: 0.1; Binding of a rabbit serum to looped/cyclic peptides of protein N of SARS-CoV Urbani (Rabbit serum looped peptides) [3]: 0.4; Binding of antibody 03-018 to linear peptides of the N protein of SARS-CoV Urbani [4]: 0.1; Binding of antibody 03-018 to looped/cyclic peptides of the N protein of SARS-CoV Urbani [4]: 0.2
